How the values were obtained:
Assay type in all cases: cell-based, human
[1] = tested on: TGF-βRII protein expression; assay: Surface staining / flow cytometry of TGF-βRII protein on CD4+CD25- T cells; conditions: CD4+CD25- T cells incubated 48 hours with ligand
Experimental: (§1) FIG. 3: TGF-βRII expression on effector T cells after NOTCH ligands exposure • A) CD4^+CD25^−T cells were purified using Miltenyi microbeads from PBMC and cultured for 3 hours in coated wells with anti-CD3 (200 ng/ml) and NOTCH ligands (5 μg/ml) or IgG control (5 μg/ml). Quantitative real-time PCR was performed to measure the transcripts levels of TGF-βRII. Data shown are mean±SEM and are representative of 4 independent experiments. * indicates P<0.05. • B) Protein levels of TGF-βRII in CD4^+CD25^−T cells stimulated to DL-1, DL-4 and Jagged-1 using FACS analysis. Mean of fluorescence are represented±SEM. * indicates P<0.05.
For surface staining, the cells were harvested, washed twice and resuspended in 1% FCS buffer. The cells were stained with mAbs for CD4 (Beckman Coulter), TGF-βRII (R&D) as per manufacturer's instructions for 20 min at 4° C. Cells were then analyzed by flow cytometry using FACScalibur™ and CellQuest™ software (Becton Dickinson, San Jose, Calif., USA).
TGF-βRII protein expression was assessed by flow cytometry. In these experiments, effector CD4^+CD25^− T cells were isolated and incubated for 48 hours in the presence of NOTCH ligands or IgG control.

[2] = tested on: CD4+CD25- T cell proliferation; assay: Coculture of effector T cells and Treg at low ratio on immobilized NOTCH ligands, with or without anti-TGF-β; parameters: Mean inhibition of T cell proliferation / Mean inhibition of T cell proliferation in the presence of anti-TGF-β mAbs: unit of the concentration uncertain
Experimental: FIG. 2: NOTCH suppresses the proliferation of CD4^+CD25^− T cells through TGF-β • A) CD4^+CD25^−T cells were cultured for 5 days in coated wells with anti-CD3 and NOTCH ligands (5 μg/ml) or IgG control (5 μg/ml) in the presence of Treg at ratio 1:16. Anti-TGF-β or IgG control mAbs (2.5 μg/ml) were added at the beginning of the co-culture. The data represent the mean±SEM. * indicates P<0.05. • B) CD4^+CD25^−T cells were cultured for 5 days in coated wells with anti-CD3 and NOTCH ligands (5 μg/ml) or IgG control (5 μg/ml). Low dose of TGF-β (0.1 ng/ml) was added. The data represent the mean±SEM.
Peripheral blood mononuclear cells were separated by Ficoll-Hypaque centrifugation (Amersham Biosciences) from buffy coats obtained from healthy blood donors (EFS, Créteil). CD4^+ CD25^− T cells and CD4^+CD25^high T cells were isolated using a CD4^+ T cell enrichment column and a human CD4^+CD25^+ Treg isolation kit purchased from Miltenyi Biotec. CD4^+CD25^− cells and CD4^+CD25^+ cells were enriched to greater than 95% purity. Cells were plated in media at a concentration of 1.25×10^5 to 5×10^5 cells per ml in a 96-well round-bottom plates coated with 1 μg/ml of anti-CD3 (UCHT1) and 5 μg/ml of NOTCH Ligand (DL-1-Fc, DL-4-Fc and Jagged-1-Fc are a generous Gift from Dr. Sakano).
Percentage of inhibition was calculated as follows: 1−(mean cpm of co-culture wells divided by mean cpm of CD4^+CD25^− cells cultured alone)×100.
In sensitizing assays CD4^+CD25^− and CD4^+CD25^high were pre-incubated during 16 hours on coated NOTCH Ligand. Cells were also collected, washed and incubated alone or with Treg and stimulated as described above. Some experiments were performed in the presence of anti-TGF-β or IgG control (2.5 μg/ml).
The implication of NOTCH1 on effector T cell responses in the presence of Treg through a TGF-β signalling mechanism has not yet been elucidated. To test this, a coculture experiments of effector T cells and Treg at a low ratio (ratio 1:16) in the presence of immobilized NOTCH ligands DL1, DL4 and Jagged-1 or Ig controls at […] was performed. […]

TGF-βRII RNA expression = assay: Quantitative real-time PCR of TGF-βRII transcripts in CD4+CD25- T cells; conditions: coated anti-CD3 (200 ng/ml) and ligand (5 μg/ml) for 3 hours
Experimental: as §1
CD4^+CD25^− T cells were cultured for 3 hours in coated wells with anti-CD3 (200 ng/ml) and NOTCH ligands (5 μg/ml) or IgG control (5 μg/ml). Total RNA was extracted with Trizol (Invitrogen) and purified by chloroform extraction. RNA was then reverse transcribed using 1 mM oligodT and the Superscript™ HH Rnase H-reverse transcriptase (Invitrogen Life technologies) according to the manufacturer's instructions. Quantitative PCR was performed in a LightCycler System (Roche diagnostics) using a SYBR Green PCR kit from Roche Diagnostics. The cDNA input for each population was normalized to obtain equivalent signals with Splicing Factor 3A1 (SF3A1) used as housekeeping gene. Primers used were: […]
Active TGF-β mediates its biological functions by binding to TGF-β type I and type II receptors (TGF-βRII). Therefore, the effects of NOTCH activation on TGF-βRII expression of effector T cells were first investigated. […] This effect is abrogated in the presence of GSI (P<0.05 for comparison with culture performed without GSI vehicle).

Molecule	TGF-βRII protein expression (MFI) [1]	Mean inhibition of T cell proliferation in the presence of anti-TGF-β mAbs ([2]; coculture with Treg at ratio 1:16, immobilized ligand at 5 µg/mL, anti-TGF-β 2.5 µg/mL added at the beginning of the culture) [%]	Mean inhibition of T cell proliferation ([2]; coculture with Treg at ratio 1:16, immobilized ligand at 5 µg/mL, no anti-TGF-β) [%]	TGF-βRII RNA expression, increase compared to IgG control (TGF-βRII RNA expression)	Effect of anti-TGF-β on coculture of Treg and ligand-treated effector T cells ([2]; Treg ratio 1:16, anti-TGF-β 2.5 μg/ml)
Jagged-1: recombinant NOTCH ligand Jagged-1, used coated as Jagged-1-Fc (SEQ ID NO: 5)	130	19.3	65	2.8 fold	–
DL-1: recombinant NOTCH ligand Delta-like 1, used coated as DL-1-Fc (SEQ ID NO: 8) (protein, listed as Homo sapiens) MGSRCALALAVLSALLCQVWSSGVFELKLQEFVNKKGLLGNRNCCRGGAGPPPCACRTFFRVCLKHYQASVSPEPPCTYGSAVTPVLGVDSFSLPDGGGADSAFSNPIRFPFGFTWPGTFSLIIEALHTDSPDDLATENPERLISRLATQRHLTVGEEWSQDLHSSGRTDLKYSYRFVCDEHYYGEGCSVFCRPRDDAFGHFTCGERGEKVCNPGWKGPYCTEPICLPGCDEQHGFCDKPGECKCRVGWQGRYCDECIRYPGCLHGTCQQPWQCNCQEGWGGLFCNQDLNYCTHHKPCKNGATCTNTGQGSYTCSCRPGYTGATCELGIDECDPSPCKNGGSCTDLENSYSCTCPPGFYGKICELSAMTCADGPCFNGGRCSDSPDGGYSCRCPVGYSGFNCEKKIDYCSSSPCSNGAKCVDLGDAYLCRCQAGFSGRHCDDNVDDCASSPCANGGTCRDGVNDFSCTCPPGYTGRNCSAPVSRCEHAPCHNGATCHERGHRYVCECARGYGGPNCQFLLPELPPGPAVVDLTEKLEGQGGPFPWVAVCAGVILVLMLLLGCAAVVVCVRLRLQKHRPPADPCRGETETMNNLANCQREKDISVSIIGATQIKNTNKKADFHGDHSADKNGFKARYPAVDYNLVQDLKGDDTAVRDAHSKRDTKCQPQGSSGEEKGTPTTLRGGEASERKRPDSGCSTSKDTKYQSVYVISEEKDECVIATEV	85	–	–	did not significantly modify	did not affect

Reference: patent US20150140043A1, “IMMUNOMODULATORY METHODS USING NOTCH AGONISTS” (INSTITUT NATIONAL DE LA SANTE DE LA RECHERCHE MEDICAL …, priority 2012, published 2015)
